SMILES strings stand for the structures. Structures can show the parent of a compound that is named as a salt.

For the first test, the system named is U937 cells. Description: U937 Cell TNFα Release Assay. Format: cell-based, human. The settings on record: Homo sapiens, U-937, 4 h, LPS-stimulated differentiated U937 cells, TNFα by ELISA; mixture of stereoisomers implied unless otherwise noted; read-out: TNF Release Assay Avg. IC50. A general note: In an ELISA, binding on a coated surface is turned into a signal by an enzyme label.
As usually defined, the IC50 is the point on the concentration scale where inhibition reaches its midpoint. Regarding `COc1ccc2[nH]c3c(c2c1)CCCNC3=O` [Example 30, 7-methoxy-3,4,5,10-tetrahydroazepino[3,4-b]indol-1(2H)-one hydrochloride], the 50% inhibitory concentration (IC50) worked out at 2.66 µM.

As to `COC(=O)C1NCC(C)c2c1[nH]c1ccc(OC)cc21` (stereo not drawn) [Example 189, methyl 6-methoxy-4-methyl-2,3,4,9-tetrahydro-1H-beta-carboline-1-carboxylate], the IC50 was determined as 53.2 µM.

`COC(=O)C(Oc1ccc2[nH]c3c(c2c1)CCNC3C(=O)O)c1ccccc1` (stereo not drawn) [Example 57, 6-(2-methoxy-2-oxo-1-phenylethoxy)-2,3,4,9-tetrahydro-1H-beta-carboline-1-carboxylic acid]: the half-inhibitory concentration (IC50) is 97.3 µM.

Take `COC(=O)c1cccc2c3c([nH]c12)CCNC3=O` [Example 29, methyl 1-oxo-2,3,4,5-tetrahydro-1H-pyrido[4,3-b]indole-6-carboxylate]: the IC50 came out at 42.4 µM.

For `O=C(O)C1c2[nH]c3ccc(O)cc3c2C2CCN1C2` (stereo not drawn) [Example 2, 7-hydroxy-3,4,5,10-tetrahydro-1H-2,5-methanoazepino[3,4-b]indole-1-carboxylic acid hydrochloride], the IC50 amounted to 42.6 µM.

Staying with this test, now noted: Homo sapiens, U-937, 4 h, read-out: TNF Release Assay Avg. IC50, LPS-stimulated differentiated U937 cells, TNFα by ELISA; mixture of stereoisomers implied unless otherwise noted.
As to `COC(=O)C1c2[nH]c3ccc(OCc4ccccc4)cc3c2CCN1C` (stereo not drawn) [Example 176, methyl 6-(benzyloxy)-2-methyl-2,3,4,9-tetrahydro-1H-beta-carboline-1-carboxylate], the IC50 was determined as 36.4 µM.

As to `COc1ccc2[nH]c3c(c2c1)CC(CO)NC3C(=O)O` (stereo not drawn) [Example 24, 3-(hydroxymethyl)-6-methoxy-2,3,4,9-tetrahydro-1H-beta-carboline-1-carboxylic acid], the IC50 was above 100 µM.

`COC(=O)C1c2[nH]c3ccc(OC)cc3c2CCN1C` (stereo not drawn) [Example 149, methyl 6-methoxy-2-methyl-2,3,4,9-tetrahydro-1H-beta-carboline-1-carboxylate]: the IC50 was 8.25 µM.

As for `NC(=O)c1ccc2[nH]c3c(c2c1)CCNC3C(=O)O` (stereo not drawn) [Example 88, 6-(aminocarbonyl)-2,3,4,9-tetrahydro-1H-beta-carboline-1-carboxylic acid trifluoroacetate hydrate], the IC50 was above 100 µM.

Consider `COC(=O)C1NCCc2c1[nH]c1ccc(OC)cc21` (stereo not drawn) [Example 106, methyl 6-methoxy-2,3,4,9-tetrahydro-1H-beta-carboline-1-carboxylate hydrochloride], for which the IC50 was found to be 26.1 µM.

Take `COc1cccc2[nH]c3c(c12)CCNC3C(=O)O` (stereo not drawn) [Example 103, 5-methoxy-2,3,4,9-tetrahydro-1H-beta-carboline-1-carboxylic acid hydrochloride]: the IC50 turned out to be 92.6 µM.

In the case of `CCC1CNC(C(=O)O)c2[nH]c3ccc(OC)cc3c21` (stereo not drawn) [Example 21, 4-ethyl-6-methoxy-2,3,4,9-tetrahydro-1H-beta-carboline-1-carboxylic acid hydrochloride], the IC50 is above 100 µM.

Take `O=C(O)C1NCCc2c1[nH]c1ccc(OCc3ccccc3)cc21` (stereo not drawn) [Example 64, 6-(benzyloxy)-2,3,4,9-tetrahydro-1H-beta-carboline-1-carboxylic acid hydrochloride]: the IC50 was found to be 85.1 µM.

For `O=C(O)C1NCCc2c1[nH]c1ccc(F)cc21` (stereo not drawn) [Example 94, 6-fluoro-2,3,4,9-tetrahydro-1H-beta-carboline-1-carboxylic acid trifluoroacetate], the IC50 is above 100 µM.

In the case of `COc1ccc2[nH]c3c(c2c1)CCN[C@@H]3C(=O)O` [Example 67, (1S)-6-methoxy-2,3,4,9-tetrahydro-1H-beta-carboline-1-carboxylic acid], the half-inhibitory concentration (IC50) is above 100 µM.

Regarding `O=C(O)C1NCCc2c1[nH]c1ccc(O)cc21` (stereo not drawn) [Example 33, 6-hydroxy-2,3,4,9-tetrahydro-1H-beta-carboline-1-carboxylic acid hydrochloride], the half-maximal inhibitory concentration (IC50) was above 100 µM.

For `COc1ccc2[nH]c3c(c2c1)C(C)CNC3C(=O)O` (stereo not drawn) [Example 22, 6-methoxy-4-methyl-2,3,4,9-tetrahydro-1H-beta-carboline-1-carboxylic acid], the concentration for half-maximal inhibition (IC50) came to 92.2 µM.

The test is the same for the next values; noted with them: Homo sapiens, U-937, LPS-stimulated differentiated U937 cells, TNFα by ELISA; mixture of stereoisomers implied unless otherwise noted; read-out: TNF Release Assay Avg. IC50.
With `COc1ccc2[nH]c3c(c2c1)CCC(C)/C3=N/O` (stereo not drawn) [Example 78, 6-methoxy-2-methyl-2,3,4,9-tetrahydro-1H-carbazol-1-one oxime], the half-inhibitory concentration (IC50) is 1.59 µM.

With `COc1ccc2[nH]c3c(c2c1)CCC/C3=N/O` [Example 25, (1Z)-6-methoxy-2,3,4,9-tetrahydro-1H-carbazol-1-one oxime], the IC50 stood at 2.18 µM.

For `COc1ccc2[nH]c3c(c2c1)CC(CO)NC3=O` (stereo not drawn) [Example 37, 3-(hydroxymethyl)-6-methoxy-2,3,4,9-tetrahydro-1H-beta-carbolin-1-one], the IC50 was above 100 µM.

Take `COC(=O)C1c2[nH]c3ccc(OC)cc3c2C2CCN1C2` (stereo not drawn) [Example 58, methyl 7-methoxy-3,4,5,10-tetrahydro-1H-2,5-methanoazepino[3,4-b]indole-1-carboxylate trifluoroacetate]: the half-inhibitory concentration (IC50) came out at 16.3 µM.

For `O=C(OCc1ccccc1)C1c2[nH]c3ccc(O)cc3c2C2CCN1C2` (stereo not drawn) [Example 63, benzyl 7-hydroxy-3,4,5,10-tetrahydro-1H-2,5-methanoazepino[3,4-b]indole-1-carboxylate hydrochloride], the half-maximal inhibitory concentration (IC50) amounted to 35.9 µM.

The same test, now with this note: Homo sapiens, U-937, read-out: TNF Release Assay Avg. IC50, LPS-stimulated differentiated U937 cells, TNFα by ELISA; mixture of stereoisomers implied unless otherwise noted.
As to `COc1ccc2[nH]c3c(c2c1)C1CCN(C1)C3C(=O)OCC1CCCCC1` (stereo not drawn) [Example 99, cyclohexylmethyl 7-methoxy-3,4,5,10-tetrahydro-1H-2,5-methanoazepino[3,4-b]indinole-1-carboxylate hydrochloride], the half-maximal inhibitory concentration (IC50) was found to be 9.83 µM.

For `CCOC(=O)C1c2[nH]c3ccc(OC)cc3c2C2CCN1C2` (stereo not drawn) [Example 92, ethyl 7-methoxy-3,4,5,10-tetrahydro-1H-2,5-methanoazepino[3,4-b]indole-1-carboxylate trifluoroacetate], the IC50 was 5.61 µM.

As for `C=CCOC(=O)C1c2[nH]c3ccc(OC)cc3c2C2CCN1C2` (stereo not drawn) [Example 28, allyl 7-methoxy-3,4,5,10-tetrahydro-1H-2,5-methanoazepino[3,4-b]indole-1-carboxylate hydrochloride], the IC50 was found to be 14.5 µM.

`COC(=O)C1c2[nH]c3ccc(O)cc3c2C2CCN1C2` (stereo not drawn) [Example 40, methyl 7-hydroxy-3,4,5,10-tetrahydro-1H-2,5-methanoazepino[3,4-b]indole-1-carboxylate hydrochloride]: the IC50 came out at 25.5 µM.

Consider `COc1ccc2[nH]c3c(c2c1)C1CCN(C1)C3C(=O)NCc1ccccc1` (stereo not drawn) [Example 243, N-benzyl-7-methoxy-3,4,5,10-tetrahydro-1H-2,5-methanoazepino[3,4-b]indole-1-carboxamide hydrochloride], for which the IC50 was above 100 µM.

As for `COc1ccc2[nH]c3c(c2c1)C1CCN(C1)C3C(=O)OC1CCCCC1` (stereo not drawn) [Example 105, hydrochloride], the concentration for half-maximal inhibition (IC50) is above 100 µM.

Consider `CCCCCCOC(=O)C1c2[nH]c3ccc(OC)cc3c2C2CCN1C2` (stereo not drawn) [Example 93, hydrochloride], for which the concentration for half-maximal inhibition (IC50) amounted to 9.65 µM.

On to `COC(=O)C1c2[nH]c3ccc(OCc4ccccc4)cc3c2C2CCN1C2` (stereo not drawn) [Example 91, methyl 7-(benzyloxy)-3,4,5,10-tetrahydro-1H-2,5-methanoazepino[3,4-b]indole-1-carboxylate compound with trifluoroacetic acid (1:1)], for which the IC50 was found to be 24 µM.

Take `COc1ccc2[nH]c3c(c2c1)C1CCN(C1)C3C(=O)OCCF` (stereo not drawn) [Example 26, trifluoroacetate]: the IC50 was found to be 2.04 µM.

Turning to `COc1ccc2[nH]c3c(c2c1)C1CCN(C1)C3C(=O)OCCSC` (stereo not drawn) [Example 32, hydrochloride], the half-maximal inhibitory concentration (IC50) turned out to be 29.9 µM.

`COc1ccc2[nH]c3c(c2c1)C1CCN(C1)C3C(=O)OC(C)C` (stereo not drawn) [Example 59, isopropyl 7-methoxy-3,4,5,10-tetrahydro-1H-2,5-methanoazepino[3,4-b]indole-1-carboxylate hydrochloride]: the 50% inhibitory concentration (IC50) was above 100 µM.

As to `COc1ccc2[nH]c3c(c2c1)C1CCN(C1)C3C(=O)OC1C(C)(C)CCCC1(C)C` (stereo not drawn) [Example 152, 2,2,6,6-tetramethylcyclohexyl 7-methoxy-3,4,5,10-tetrahydro-1H-2,5-methanoazepino[3,4-b]indole-1-carboxylate trifluoroacetate], the IC50 stood at 21.8 µM.

The test is the same for the next values; noted with them: read-out: TNF Release Assay Avg. IC50; LPS-stimulated differentiated U937 cells, TNFα by ELISA; mixture of stereoisomers implied unless otherwise noted.
Turning to `COC(=O)C1c2[nH]c3ccc(O)cc3c2CCN1C` (stereo not drawn) [Example 150, methyl 6-hydroxy-2-methyl-2,3,4,9-tetrahydro-1H-beta-carboline-1-carboxylate], the concentration for half-maximal inhibition (IC50) amounted to 0.523 µM.

Staying with this test, now noted: read-out: TNF Release Assay Avg. IC50; LPS-stimulated differentiated U937 cells, TNFα by ELISA; mixture of stereoisomers implied unless otherwise noted; hydrochloride.
Consider `CCCOC(=O)C1c2[nH]c3ccc(OC)cc3c2C2CCN1C2` (stereo not drawn) [Example 90, propyl 7-methoxy-3,4,5,10-tetrahydro-1H-2,5-methanoazepino[3,4-b]indole-1-carboxylate hydrochloride], for which the half-maximal inhibitory concentration (IC50) is 47.9 µM.

Regarding `COCCOC(=O)C1c2[nH]c3ccc(OC)cc3c2C2CCN1C2` (stereo not drawn) [Example 35, hydrochloride], the IC50 was found to be 93.2 µM.

Staying with this test, now noted: read-out: TNF Release Assay Avg. IC50; LPS-stimulated differentiated U937 cells, TNFα by ELISA; mixture of stereoisomers implied unless otherwise noted; trifluoroacetate.
Consider `CCCOC(=O)C1c2[nH]c3ccc(OC)cc3c2C2CCN1C2` (stereo not drawn) [Example 61, propyl 7-methoxy-3,4,5,10-tetrahydro-1H-2,5-methanoazepino[3,4-b]indole-1-carboxylate trifluoroacetate], for which the concentration for half-maximal inhibition (IC50) came out at 0.879 µM.

The target of the next test is MK-2 (Homo sapiens, UniProt P49137). The test is described as follows: Determination of MK-2 IC50 (phosphorylation of HSP-peptide, anion exchange resin capture assay). The following applies: additional values are replicate IC50 experiments; mixture of stereoisomers implied unless otherwise noted; read-out: MK-2 Avg. IC50. It is filed as biochemical.
Sequence of MK-2 (P49137 whole entry, species assumed): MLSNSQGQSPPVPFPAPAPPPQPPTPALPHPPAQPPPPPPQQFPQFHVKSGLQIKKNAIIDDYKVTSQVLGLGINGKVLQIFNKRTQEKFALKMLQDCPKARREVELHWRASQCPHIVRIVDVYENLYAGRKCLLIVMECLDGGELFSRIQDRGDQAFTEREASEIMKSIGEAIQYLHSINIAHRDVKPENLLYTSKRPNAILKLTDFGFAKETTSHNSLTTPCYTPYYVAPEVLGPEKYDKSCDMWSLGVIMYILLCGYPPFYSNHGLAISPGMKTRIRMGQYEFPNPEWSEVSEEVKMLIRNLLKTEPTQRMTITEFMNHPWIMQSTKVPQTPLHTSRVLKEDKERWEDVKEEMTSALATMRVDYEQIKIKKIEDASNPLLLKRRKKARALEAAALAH
In the case of `COc1ccc2[nH]c3c(c2c1)CCCNC3=O` [Example 30, 7-methoxy-3,4,5,10-tetrahydroazepino[3,4-b]indol-1(2H)-one hydrochloride], the IC50 is 3.6 µM.

On to `COC(=O)C1NCC(C)c2c1[nH]c1ccc(OC)cc21` (stereo not drawn) [Example 189, methyl 6-methoxy-4-methyl-2,3,4,9-tetrahydro-1H-beta-carboline-1-carboxylate], for which the half-inhibitory concentration (IC50) was above 200 µM.

For `COC(=O)C1c2[nH]c3ccc(OCc4ccccc4)cc3c2CCN1C` (stereo not drawn) [Example 176, methyl 6-(benzyloxy)-2-methyl-2,3,4,9-tetrahydro-1H-beta-carboline-1-carboxylate], the IC50 is above 200 µM.

For the compound `COc1ccc2[nH]c3c(c2c1)CCC(C)/C3=N/O` (stereo not drawn) [Example 78, 6-methoxy-2-methyl-2,3,4,9-tetrahydro-1H-carbazol-1-one oxime], the half-inhibitory concentration (IC50) turned out to be 17 µM.

As for `COC(=O)C(Oc1ccc2[nH]c3c(c2c1)CCNC3C(=O)O)c1ccccc1` (stereo not drawn) [Example 57, 6-(2-methoxy-2-oxo-1-phenylethoxy)-2,3,4,9-tetrahydro-1H-beta-carboline-1-carboxylic acid], the half-maximal inhibitory concentration (IC50) stood at 9.45 µM.

With `COC(=O)c1cccc2c3c([nH]c12)CCNC3=O` [Example 29, methyl 1-oxo-2,3,4,5-tetrahydro-1H-pyrido[4,3-b]indole-6-carboxylate], the concentration for half-maximal inhibition (IC50) came to 3.52 µM.

In the case of `COc1ccc2[nH]c3c(c2c1)CCC/C3=N/O` [Example 25, (1Z)-6-methoxy-2,3,4,9-tetrahydro-1H-carbazol-1-one oxime], the concentration for half-maximal inhibition (IC50) worked out at 3.1 µM.

For the origin of these results see patent publication US20050137220A1 (Pharmacia Corporation, priority 2003, published 2005).
